Laboratory results as given in US8535901B2, “Peptidase substrates” (bioMérieux, S.A., priority 2009, dated 2013).
Blank lines part the entries; values can stand above or below the compound they belong to.

Assays:
Type in all cases: cell-based
[1] = test system: Citrobacter freundii NCTC 9750; assay: Colony color on lactose/sucrose agar medium with pH indicator; conditions: indicator 0.05 g/l with lactose, sucrose and 5-bromo-4-chloro-3-indoxyl-β-D-glucopyranoside 0.05 g/l, 24 hours at 37° C., visual
Protocol: (§1) Seven strains of microorganisms originating from the NCTC collection and belonging to various species of bacteria are inoculated onto these media by quadrant streaking of 10 μl of a suspension at 0.5 McFarland diluted to a 1/20.

[2] = test system: Enterobacter aerogenes NCTC 10 102; assay: as above; conditions: indicator 0.05 g/l with lactose, sucrose and 5-bromo-4-chloro-3-indoxyl-β-D-glucopyranoside 0.05 g/l, 24 hours at 37° C., visual
Protocol: as §1

[3] = test system: Enterobacter cloacae NCTC 11 936; assay: as above; conditions: indicator 0.05 g/l with lactose, sucrose and 5-bromo-4-chloro-3-indoxyl-β-D-glucopyranoside 0.05 g/l, 24 hours at 37° C., visual
Protocol: as §1

[4] = test system: Escherichia coli NCTC 12 076; assay: as above; conditions: indicator 0.05 g/l with lactose, sucrose and 5-bromo-4-chloro-3-indoxyl-β-D-glucopyranoside 0.05 g/l, 24 hours at 37° C., visual
Protocol: as §1

[5] = test system: Klebsiella pneumoniae NCTC 10 896; assay: as above; conditions: indicator 0.05 g/l with lactose, sucrose and 5-bromo-4-chloro-3-indoxyl-β-D-glucopyranoside 0.05 g/l, 24 hours at 37° C., visual
Protocol: as §1

[6] = test system: Morganella morganii NCTC 235; assay: as above; conditions: indicator 0.05 g/l with lactose, sucrose and 5-bromo-4-chloro-3-indoxyl-β-D-glucopyranoside 0.05 g/l, 24 hours at 37° C., visual
Protocol: as §1

[7] = test system: Shigella boydii NCTC 9327; assay: as above; conditions: indicator 0.05 g/l with lactose, sucrose and 5-bromo-4-chloro-3-indoxyl-β-D-glucopyranoside 0.05 g/l, 24 hours at 37° C., visual
Protocol: as §1

[8] = test system: Escherichia coli NCTC 10 418; assay: Peptidase detection on Columbia medium with substrate; set-up: key to Grow. (growth): NG: No growth; 0.5: weak growth; 1: moderate growth; 2: good growth; conditions: 40 mg substrate in 400 ml Columbia medium, 24 hours at 37° C.
Protocol: (§2) The 6 media were distributed into Petri dishes 90 mm in diameter, in a proportion of 20 ml per dish.
(§3) Seventeen strains of microorganisms stemming from collections and belonging to various species of bacteria and yeasts are inoculated in spots of approximately 10 000 colony-forming units.
(§4) The media are incubated for 24 hours at 37° C., and then the colonies formed are examined visually, with or without the addition of acid and under a UV lamp at 365 nm.

[9] = test system: Serratia marcescens NCTC 10 211; assay: as above; set-up: key to Grow. (growth): NG: No growth; 0.5: weak growth; 1: moderate growth; 2: good growth; conditions: 40 mg substrate in 400 ml Columbia medium, 24 hours at 37° C.
Protocol: as §2, §3, §4

[10] = test system: Pseudomonas aeruginosa NCTC 10 662; assay: as above; set-up: key to Grow. (growth): NG: No growth; 0.5: weak growth; 1: moderate growth; 2: good growth; conditions: 40 mg substrate in 400 ml Columbia medium, 24 hours at 37° C.
Protocol: as §2, §3, §4

[11] = test system: Yersinia enterocolitica NCTC 11 176; assay: as above; set-up: key to Grow. (growth): NG: No growth; 0.5: weak growth; 1: moderate growth; 2: good growth; conditions: 40 mg substrate in 400 ml Columbia medium, 24 hours at 37° C.
Protocol: as §2, §3, §4

[12] = test system: Salmonella typhimurium NCTC 74; assay: as above; set-up: key to Grow. (growth): NG: No growth; 0.5: weak growth; 1: moderate growth; 2: good growth; conditions: 40 mg substrate in 400 ml Columbia medium, 24 hours at 37° C.
Protocol: as §2, §3, §4

[13] = test system: Enterobacter cloacae NCTC 11 936; assay: as above; set-up: key to Grow. (growth): NG: No growth; 0.5: weak growth; 1: moderate growth; 2: good growth; conditions: 40 mg substrate in 400 ml Columbia medium, 24 hours at 37° C.
Protocol: as §2, §3, §4

[14] = test system: Providencia rettgeri NCTC 7 475; assay: as above; set-up: key to Grow. (growth): NG: No growth; 0.5: weak growth; 1: moderate growth; 2: good growth; conditions: 40 mg substrate in 400 ml Columbia medium, 24 hours at 37° C.
Protocol: as §2, §3, §4

[15] = test system: Bacillus subtilis NCTC 9 372; assay: as above; set-up: key to Grow. (growth): NG: No growth; 0.5: weak growth; 1: moderate growth; 2: good growth; conditions: 40 mg substrate in 400 ml Columbia medium, 24 hours at 37° C.
Protocol: as §2, §3, §4

[16] = test system: Enterococcus faecalis NCTC 775; assay: as above; set-up: key to Grow. (growth): NG: No growth; 0.5: weak growth; 1: moderate growth; 2: good growth; conditions: 40 mg substrate in 400 ml Columbia medium, 24 hours at 37° C.
Protocol: as §2, §3, §4

[17] = test system: Enterococcus faecium NCTC 7 171; assay: as above; set-up: key to Grow. (growth): NG: No growth; 0.5: weak growth; 1: moderate growth; 2: good growth; conditions: 40 mg substrate in 400 ml Columbia medium, 24 hours at 37° C.
Protocol: as §2, §3, §4

[18] = test system: Staphylococcus epidermidis NCTC 11 047; assay: as above; set-up: key to Grow. (growth): NG: No growth; 0.5: weak growth; 1: moderate growth; 2: good growth; conditions: 40 mg substrate in 400 ml Columbia medium, 24 hours at 37° C.
Protocol: as §2, §3, §4

[19] = test system: Staphylococcus aureus NCTC 6 571; assay: as above; set-up: key to Grow. (growth): NG: No growth; 0.5: weak growth; 1: moderate growth; 2: good growth; conditions: 40 mg substrate in 400 ml Columbia medium, 24 hours at 37° C.
Protocol: as §2, §3, §4

[20] = test system: Staphylococcus aureus NCTC 11 939; assay: as above; set-up: key to Grow. (growth): NG: No growth; 0.5: weak growth; 1: moderate growth; 2: good growth; conditions: 40 mg substrate in 400 ml Columbia medium, 24 hours at 37° C.
Protocol: as §2, §3, §4

[21] = test system: Streptococcus pyogenes NCTC 8 306; assay: as above; set-up: key to Grow. (growth): NG: No growth; 0.5: weak growth; 1: moderate growth; 2: good growth; conditions: 40 mg substrate in 400 ml Columbia medium, 24 hours at 37° C.
Protocol: as §2, §3, §4

[22] = test system: Listeria monocytogenes NCTC 11 994; assay: as above; set-up: key to Grow. (growth): NG: No growth; 0.5: weak growth; 1: moderate growth; 2: good growth; conditions: 40 mg substrate in 400 ml Columbia medium, 24 hours at 37° C.
Protocol: as §2, §3, §4

[23] = test system: Candida albicans ATCC 90 028; assay: as above; set-up: key to Grow. (growth): NG: No growth; 0.5: weak growth; 1: moderate growth; 2: good growth; conditions: 40 mg substrate in 400 ml Columbia medium, 24 hours at 37° C.
Protocol: as §2, §3, §4

[24] = test system: Candida glabrata NCPF 3 943; assay: as above; set-up: key to Grow. (growth): NG: No growth; 0.5: weak growth; 1: moderate growth; 2: good growth; conditions: 40 mg substrate in 400 ml Columbia medium, 24 hours at 37° C.
Protocol: as §2, §3, §4

SMILES: Nc1ccc(C=Cc2ccncc2)cc1 [4-4′-Aminostyrylpyridine, 4-(4′-Aminostyryl)pyridine]
Colony color [1]: Yellow | Colony color [2]: Green | Colony color [3]: Green | Colony color [4]: Yellow | Colony color [5]: Green | Colony color [6]: Colorless | Colony color [7]: Colorless

Grow. (growth) [9]: 2 | Col. (colour of the colonies) ([9]; visual): Orange | Grow. (growth) [10]: 2 | Col. (colour of the colonies) ([10]; visual): Orange | Grow. (growth) [12]: 1 | Col. (colour of the colonies) ([12]; visual): Pale green | Grow. (growth) [13]: 2 | Col. (colour of the colonies) ([13]; visual): Green | Grow. (growth) [15]: 2 | Col. (colour of the colonies) ([15]; visual): Pale green | Grow. (growth) [16]: 2 | Col. (colour of the colonies) ([16]; visual): Pale green | Grow. (growth) [17]: 2 | Col. (colour of the colonies) ([17]; visual): Pale green | Grow. (growth) [21]: 1 | Col. (colour of the colonies) ([21]; visual): Pale green | Grow. (growth) [22]: 2 | Col. (colour of the colonies) ([22]; visual): Pale green
SMILES: C[n+]1ccc(C=Cc2ccc(NC(=O)CCN)cc2)cc1.[Cl-] [β-Ala-ASPM^+, β-Alanyl-4-(4′-amidostyryl)-N-methyl-pyridinium chloride]
Grow. (growth) [8]: 2 | Col. (colour of the colonies) ([8]; visual): Green | Grow. (growth) [11]: 2 | Col. (colour of the colonies) ([11]; visual): Pale green | Grow. (growth) [14]: 2 | Col. (colour of the colonies) ([14]; visual): Green | Grow. (growth) [18]: 2 | Col. (colour of the colonies) ([18]; visual): Green | Grow. (growth) [19]: 2 | Col. (colour of the colonies) ([19]; visual): Green | Grow. (growth) [20]: 2 | Col. (colour of the colonies) ([20]; visual): Green | Grow. (growth) [23]: 2 | Col. (colour of the colonies) ([23]; visual): Pale green | Grow. (growth) [24]: 1 | Col. (colour of the colonies) ([24]; visual): Pale green
